Laboratory results as given in patent publication US20060247156A1, “Use of neuropeptides for ligament, cartilage, and bone healing” (priority 2004, published 2006).
“Also recorded” adds a separate entry of the source.

Legend:
[1] = test system: ruptured MCL of a FNT rat; experiment: Local neuropeptide delivery to ruptured MCL of femoral nerve transected (FNT) rats: mechanical testing, histomorphology; type: in vivo; settings: for failure force / ultimate stress / mechanical strength of healing MCL (in words): two weeks of healing; for mechanical strength of healing MCL (in words): local delivery of SP or CGRP
Text: Surgical Procedure: Thirteen female Wistar rats (278 g to 315 g) were divided into two groups: femoral nerve transection (FNT) or sham control. All rats were anesthetized with isofluorane (isofluorane 0.5-3%). […] Skin covering the anterior inguinal region was shaved and prepared for surgery. A skin incision approximately 15 mm long was made and the fascia distal to the inguinal was incised. The femoral artery, vein, and nerve were exposed and the femoral nerve was isolated and transected (with removal of a 5 mm segment of the nerve) using 3-0 dexon suture. The fascia and skin were closed in two layers with 3-0 continuous dexon suture. Immediately following FNT, rats from each group (n=4 FNT; n=3 controls) underwent a complete surgical rupture of the MCL to one knee. The contra-lateral knee underwent sham surgery. Two weeks post-knee surgery, rats were sacrificed using an overdose of pentobarbitone (150 mg/kg).
Local delivery of NPs and NP inhibitors is important to identify the specific roles of individual NPs on healing tissues. […] Briefly, NP infused mini-osmotic pumps were implanted subcutaneously into the back of rats. A small catheter running from the pump to an intramuscular space above the MCL was secured to the rat.
To test whether sensory NPs improve healing in femoral nerve transection (FNT) ruptured MCLs, three female Wistar rats (199 g to 203 g) were given SP locally to the MCL. Substance P (103 pg/μl) was infused into a miniosmotic pump and was delivered to a ruptured MCL of a FNT rat (see surgical procedure in Example 1 above). […] The results are presented graphically in FIG. 5
Animal Model and Surgery: Thirty-seven female Wistar rats (199-298 g) were divided into five groups. […] Rats that were designated to receive NPY, VIP, or a combination of NPY and VIP underwent bilateral surgical sympathectomy. Following surgical nerve transection, each rat also underwent bilateral MCL rupture. Neuropeptides were then delivered ruptured MCLs unilaterally. Neuropeptide infused mini-osmotic pumps (Alzet Corp.) were implanted subcutaneously into the back of each rat. A small catheter running from the pump was run to an intramuscular space above the MCL and was secured. To ensure that neuropeptides are delivered directly to the MCL, rhodamine labeled SP was delivered via a catheter to the MCL (n=2 rats).
To test whether autonomic NPs improve healing in SS ruptured MCLs, seven rats were given VIP, seven rats were given NPY, and seven rats were given a combination of VIP and NPY.
Mechanical Testing: Mechanical testing was performed as described in the preceding examples. Briefly, animal hind limbs from all groups (n=4 for all groups) were disarticulated at the hip joint and stored at −80° C. until testing. On the day of testing, MCLs including intact femoral and tibial bone sections were excised for ex vivo testing. Ligament thickness and width was measured optically, and MCL area was estimated with elliptical geometry. For strain measurements, optical markers were placed onto the ligament tissue near the insertion sites. A small preload of 0.1N was applied to the ligaments in order to obtain a uniform starting point. The ligaments were then preconditioned to 1% strain for 10 cycles. After preconditioning, ligaments were pulled to failure at a rate of ˜10% per second. Tissue displacement was obtained using video dimensional analysis using equations (1) and (2) supra. The mechanical properties that were examined in this study were maximum force, ultimate stress, strain at failure, elastic modulus, and area.

[2] = test system: ruptured MCL of a surgical sympathectomy (SS) rat; experiment: Local neuropeptide delivery to ruptured MCL of surgical sympathectomy (SS) rats: mechanical testing, histomorphology; type: in vivo; settings: for failure force / ultimate stress / mechanical strength of healing MCL (in words): two weeks of healing; for mechanical strength of healing MCL (in words): local delivery
Text: Surgical Procedure: Thirteen female Wistar rats (306 g to 339 g) were divided into two groups: surgical sympathectomy (SS) or sham control. All rats were anesthetized with isofluorane as described in Example 1. A transperitoneal approach was used. The lower abdomen was shaved and prepared for surgery. A skin incision approximately 25 mm long was made. Fascia and abdominal muscle were incised. Abdominal organs were displaced. With the aid of a dissecting microscope, fascia surrounding the deep muscle tissue was separated (with minimal disruption to the muscle tissue) to expose the post-ganglionic sympathetic nerves. The L1-4 nerves were isolated and transected (with removal of a 5 mm segment of the nerves) in the surgical sympathectomy group only. In both groups, the deep muscle tissue was returned to its initial position and abdominal organs were replaced. Abdominal muscles and skin were closed in two layers with a 3-0 or 4-0 continuous dexon suture. Rats from each group (n=4 SS; n=3 controls) then underwent a complete surgical rupture of the MCL to one knee. The contra-lateral knee underwent sham surgery. […] Two weeks post-surgery, rats were sacrificed using an overdose of pentobarbitone (150 mg/kg).
Local delivery of NPs and NP inhibitors is important to identify the specific roles of individual NPs on healing tissues. An animal model for the local delivery of NPs has been developed and is presented in this Example. Briefly, NP infused mini-osmotic pumps were implanted subcutaneously into the back of rats. A small catheter running from the pump to an intramuscular space above the MCL was secured to the rat.
To test whether autonomic NPs improve healing in SS-ruptured MCLs, three female Wistar rats (193 g to 204 g) were given VIP locally to the MCL. Vasoactive intestinal peptide (75 pg/μl) was infused into a mini-osmotic pump and was delivered to a ruptured MCL of a surgical sympathectomy (SS) rat (see surgical procedure above). Within minutes of surgical intervention, all rats recovered and had normal movement and behavior (grooming, feeding, etc.). […] The results are presented graphically in FIG. 6.
Animal Model and Surgery: Thirty-seven female Wistar rats (199-298 g) were divided into five groups. […] Rats that were designated to receive SP or CGRP underwent bilateral femoral nerve transection (see previous examples). Rats that were designated to receive NPY, VIP, or a combination of NPY and VIP underwent bilateral surgical sympathectomy. Following surgical nerve transection, each rat also underwent bilateral MCL rupture. Neuropeptides were then delivered ruptured MCLs unilaterally. Neuropeptide infused mini-osmotic pumps (Alzet Corp.) were implanted subcutaneously into the back of each rat. A small catheter running from the pump was run to an intramuscular space above the MCL and was secured. To ensure that neuropeptides are delivered directly to the MCL, rhodamine labeled SP was delivered via a catheter to the MCL (n=2 rats).
Within minutes of surgical intervention, all rats recovered and had normal movement and behavior (grooming, feeding, etc.). To test whether autonomic NPs improve healing in SS ruptured MCLs, seven rats were given VIP, seven rats were given NPY, and seven rats were given a combination of VIP and NPY. […]
Mechanical Testing: Mechanical testing was performed as described in the preceding examples. Briefly, animal hind limbs from all groups (n=4 for all groups) were disarticulated at the hip joint and stored at −80° C. until testing. On the day of testing, MCLs including intact femoral and tibial bone sections were excised for ex vivo testing. Ligament thickness and width was measured optically, and MCL area was estimated with elliptical geometry. For strain measurements, optical markers were placed onto the ligament tissue near the insertion sites. […]

[3] = Example 3: SP 103 pg/μl via mini-osmotic pump to ruptured MCL of FNT rat
[4] = Example 6: SP 75 pg/100 μl via mini-osmotic pump, FNT rats, bilateral MCL rupture
[5] = Example 3: VIP 75 pg/μl via mini-osmotic pump to ruptured MCL of SS rat
[6] = Example 6: SS rats, bilateral MCL rupture, mini-osmotic pump (NPY 65 pg/100 μl; VIP 100 pg/100 μl; or both)

Substance	failure force [1, 3] [N]	ultimate stress [1, 3] [MPa]	failure force [1, 4] [N]	ultimate stress [1, 4] [MPa]	histomorphology (H&E) of healing MCL ([1]; FNT rats, SP 75 pg/100 μl or CGRP 10 pg/100, two weeks)	mechanical strength of healing MCL (in words) ([1]; FNT rats)	mechanical strength of healing MCL (in words) ([1]; FNT rats, listed as Substance P)	failure force [2, 5] [N]	ultimate stress [2, 5] [MPa]	failure force [2, 6] [N]	ultimate stress [2, 6] [MPa]	histomorphology (H&E) of healing MCL ([2]; SS rats, VIP or NPY, two weeks)	mechanical strength of healing MCL (in words) ([2]; SS rats)	mechanical strength of healing MCL (in words) ([2]; SS rats, listed as Vasoactive intestinal peptide)
Substance P [SP]	74.3	72.33	74.3±7.9	72.33±22.1	cells were more aligned	greater than the strength of uninjured MCLs; also recorded: greater than that of normally innervated, intact MCLs	completely reversed the functional deficits							
vasoactive intestinal peptide [VIP]								44.23	29.63	44.2±3.1	29.6±10.0	more aligned	greater than the strength of uninjured MCLs; also recorded: completely reversed the functional deficits	greater strength than intact, normally innervated MCLs
